Laboratory results: patent US12617752B2, “Rapidly metabolized lipid compound” (Beijing Jitai Life Sciences Ltd, priority 2023, dated 2026)

Legend:
[1] = Particle size and PDI of lipid nanoparticles by dynamic light scattering; assay type: physicochemical; conditions: lipid nanoparticles with luciferase mRNA; ionizable lipid/cholesterol/DSPC/DMG-PEG2000 50/38.5/10/1.5 mol%
How it was run: (§1)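 LNPs of ionizable lipid/cholesterol/phospholipid/PEG-lipid (50/38.5/10/1.5 mol%, N/P 6) were formed by microfluidic mixing with mRNA in pH 4.5 acetate, then buffer-exchanged by ultrafiltration. Size and PDI were measured by DLS. Encapsulation came from RiboGreen fluorescence (485/528 nm) in TE pH 7.5, with and without 0.5% Triton at 37 °C for 30 min.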

C57BL/6 mice = assay: In vivo delivery of luciferase mRNA lipid nanoparticles in mice (bioluminescence imaging); conditions: intravenous, single dose 0.5 mg/kg luciferase mRNA
How it was run: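 Female C57BL/6 mice, 6-8 weeks old, received luciferase mRNA lipid nanoparticles as a single intravenous dose of 0.5 mg/kg mRNA. At 6 h, D-luciferin given intraperitoneally; 10 min later, mice were imaged under isoflurane anaesthesia. Values are group mean fluorescence intensity and total photon count.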

[2] = Encapsulation efficiency of lipid nanoparticles (Quant-it RiboGreen RNA Assay); assay type: physicochemical; conditions: lipid nanoparticles with luciferase mRNA
How it was run: as §1

SMILES | Particle size (nm) [1] [nm] | Particle-size distribution (PDI) [1] | Total photon count in vivo at 6 hours after administration (Total Flux) (C57BL/6 mice) | Encapsulation efficiency (%) [2] [%]
CCCCCCCCCNC(=O)CCCCCCCN(CCO)CCCCCCC(C)(C)C(=O)OC(CCCCCCCC)CCCCCCCC [58a] | 187.50 | 0.18 | 2.72E+10 | 68.54
CCCCCCCCCC(=O)OCC1(CCCCCN(CCCO)CCCCCCCC(=O)OCC(CCCCCCC)CCCCCCC)CC1 [58b] | 112.93 | 0.15 | 6.17E+10 | 92.88
CCCCCCCCCC(=O)OCCC(C)(C)CCCCN(CCCCO)CCCCCCCC(=O)OCC(CCCCCCC)CCCCCCC [59b] | 127.23 | 0.12 | 1.04E+11 | 80.27
CCCCCCCCCCOC(=O)CCCCC(C)(C)CCN(CCCCCCCC(=O)OC(CCCCCCCCC)CCCCCCCCC)C(=O)SCCCCN(C)C [60a] | 92.74 | 0.15 | 1.75E+10 | 97.44
CCCCCCCCCOC(=O)CCCCC(C)(C)CCN(CCCCCCCC(=O)OCC(CCCCCCC)CCCCCCC)C(=O)SCCCN(C)C [61a] | 111.90 | 0.09 | 1.32E+10 | 95.87
CCCCCCCCCCCOC(=O)CCCCCN(CCO)CCCCC(C)(C)CCC(=O)OC(CCCCCCCC)CCCCCCCC [62a] | 98.07 | 0.17 | 1.20E+10 | 89.88
CCCCCCCCCCC(=O)OCC(C)(C)CCCCCN(CCCCO)CCCCCCCC(=O)OCCCC(CCCCCC)CCCCCC [63b] | 165.53 | 0.09 | 2.72E+10 | 84.27
CCCCCCCCCCCOC(=O)CCCCC(C)(C)CCN(CCO)CCCCCCCC(=O)OC(CCCCCCCCCC)CCCCCCCCCC [64a] | 86.99 | 0.15 | 9.82E+10 | 96.72
CCCCCCCCCC(=O)OCCCC(C)(C)CCCN(CCCCO)CCCCCCCC(=O)OCC(CCCCCCC)CCCCCCC [64b] | 143.67 | 0.09 | 3.36E+10 | 89.27
CCCCCCCCCCOC(=O)CCCCC(C)(C)CCN(CCO)CCCCCCCC(=O)OCC(CCCCCCCC)CCCCCCCC [65a] | 95.88 | 0.16 | 6.53E+10 | 95.93
CCCCCCCC(CCCCCCC)COC(=O)CCCCCCCN(CCO)CCCCCC(C)(C)COC(=O)CC(CCCCCCC)CCCCCCC [65b] | 80.60 | 0.16 | 1.25E+11 | 97.75
CCCCCCCCCCOC(=O)CCCCC(C)(C)CCN(CCCO)CCCCCCCC(=O)OC(CCCCCCCCC)CCCCCCCCC [66a] | 105.77 | 0.11 | 9.31E+10 | 92.88
CCCCCCCCCC(CCCCCCCCC)OC(=O)CCCCCCCN(CCO)CCCCCC(C)(C)COC(=O)CCCC(CCCCCC)CCCCCC [66b] | 81.83 | 0.17 | 4.35E+10 | 97.18
CCCCCCCCCCOC(=O)CCCCC(C)(C)CCN(CCCCO)CCCCCCCC(=O)OC(CCCCCCCCC)CCCCCCCCC [67a] | 111.33 | 0.06 | 6.07E+10 | 91.57
CCCCCCCCCC(=O)OCC(C)(C)CCCCCN(CCO)CCCCCCC(=O)OCC(CCCCCCCC)CCCCCCCC [67b] | 88.28 | 0.23 | 1.71E+11 | 96.30
CCCCCCCCCCCOC(=O)CCCCC(C)(C)CCN(CCCCO)CCCCCCCC(=O)OC(CCCCCCCCCC)CCCCCCCCCC [68a] | 103.93 | 0.04 | 7.55E+10 | 94.47
CCCCCCCCCC(=O)OCC(C)(C)CCCCCN(CCO)CCCCCCC(=O)OCCC(CCCCCCC)CCCCCCC [68b] | 88.33 | 0.20 | 2.88E+11 | 96.31
CCCCCCCCCOC(=O)CCCCC(C)(C)CCN(CCO)CCCCCC(=O)OCC(CCCCCCCCC)CCCCCCCCC [69a] | 107.20 | 0.34 | 7.41E+10 | 96.65
CCCCCCCCCC(=O)OCC(C)(C)CCCCCN(CCCCO)CCCCCCC(=O)OCC(CCCCCCCC)CCCCCCCC [69b] | 99.05 | 0.13 | 1.52E+11 | 93.85
CCCCCCCCCOC(=O)CCCCC(C)(C)CCN(CCO)CCCCCCC(=O)OCC(CCCCCCCC)CCCCCCCC [70a] | 86.08 | 0.15 | 9.33E+10 | 96.69
CCCCCCCCCC(=O)OCC(C)(C)CCCCCN(CCCCO)CCCCCCC(=O)OCCC(CCCCCCC)CCCCCCC [70b] | 96.20 | 0.09 | 1.15E+11 | 96.91
CCCCCCCCCC(=O)OCCCC(C)(C)CCCN(CCO)CCCCCCCC(=O)OCCC(CCCCCC)CCCCCC [71b] | 95.59 | 0.17 | 1.70E+11 | 95.95
CCCCCCCCCCC(=O)OCCCCC(C)(C)CCN(CCO)CCCCCCCC(=O)OCCC(CCCCCCC)CCCCCCC [72b] | 92.45 | 0.12 | 7.01E+10 | 95.13
CCCCCCCCCC(=O)OCCCC(C)(C)CCCN(CCO)CCCCCCC(=O)OCCC(CCCCCCC)CCCCCCC [74b] | 93.18 | 0.17 | 7.13E+10 | 94.92
CCCCCCCCCC(=O)OCCCC(C)(C)CCCN(CCO)CCCCCCC(=O)OCCCC(CCCCCC)CCCCCC [75b] | 91.60 | 0.19 | 7.05E+10 | 95.99
CCCCCCCCCC(=O)OCC(C)(C)CCCCCN(CCCO)CCCCCCC(=O)OCC(CCCCCCCC)CCCCCCCC [76b] | 91.27 | 0.18 | 9.41E+10 | 94.97
CCCCCCCCCC(=O)OCC(C)(C)CCCCCN(CCCO)CCCCCCC(=O)OCCC(CCCCCCC)CCCCCCC [77b] | 93.16 | 0.16 | 9.72E+10 | 95.88
CCCCCCCCCCC(=O)OCC(C)(C)CCCCCN(CCCCO)CCCCCCC(=O)OCC(CCCCCCCCC)CCCCCCCCC [78b] | 98.88 | 0.12 | 5.51E+10 | 92.27
